Source: patent US20240000745A1, “COMPOSITIONS AND METHODS USING A COMBINATION OF OLEUROPEIN AND QUERCETIN FOR CELLULAR ENERGY” (SOCIETE DES PRODUITS NESTLE S.A., priority 2020, published 2024)

Tested on: HeLa cells
Assay: Mitochondrial calcium elevation in histamine-stimulated HeLa cells (mitochondrially targeted aequorin luminescence)
Type: cell-based
Description: To test the effect of oleuropein (or oleuropein aglycone), quercetin and their combination in living cells, the inventors measured mitochondrial calcium elevation in HeLa cells. HeLa cells were purchased from ATCC. HeLa cells were seeded in 96-well plates at a density of 50000 cells per well in minimal essential medium (DMEM, Gibco), high glucose, +10% fetal calf serum.
Mitochondrial calcium measurements were carried out using Hela cells infected with the adenovirus (from Sirion biotech) expressing the mitochondrially targeted calcium sensor mitochondrial mutated aequorin (Montero et al., 2004). For aequorin reconstitution, 24 hours after infection, cells were incubated for 2 h at room temperature (22±° C.) in standard medium (145 mM NaCl, 5 mM KCl, 1 mM MgCl2, 1 mM CaCl2, 10 mM glucose and 10 mM Hepes, pH 7.4) with 1 μM wild-type coelenterazine.
For treatment, compounds were directly added to the cell culture or myotubes cultures 2 hours before measurements. Luminescence was measured at the FLIPR Tetra Aequorin (Molecular Devices). […] Calibration of the luminescence data into calcium concentration was carried out using an algorithm, as described previously (Alvarez & Montero, 2002). Custom module analysis based on Excel (Microsoft) and GhaphPad Prism 7.02 (GraphPad) software was used for quantification.

C/C=C1/C(O)OC=C(C(=O)OC)[C@H]1CC(=O)OCCc1ccc(O)c(O)c1 (mixture of isomers) [oleuropein aglycone]
synergism with quercetin to activate mitochondria via mitochondrial Ca2+ rise (measured effect of the combination vs. theoretical sum of the single effects) (3 μM + 3 μM quercetin, integrated mitochondrial calcium rise evoked by 100 μM histamine, HeLa cells, compounds added 2 hours before measurement, P<0.05): synergizes with quercetin | level of synergism in combination with quercetin, compared between oleuropein and oleuropein aglycone (synergisms calculated as in FIG. 1 and FIG. 2, n=6, NS at P<0.05 (Student's t-test)): same level of synergism
